Ends that are not written are not given here.
Tests used:
PDL cells = test: Calcification product forming ability of PDL cells (Dahl's calcium staining, alizarin red S); type: cell-based, human; settings: peptide at various concentrations, 10 mM sodium β-glycerophosphate, three weeks after confluent state
Description: The following experiment was performed to examine effect of the peptide on calcification product forming ability of cells.
To assess calcification ability of cells, Dahl's calcium staining was performed. The PDL cells were inoculated on a 24-well culture plate at a ratio of 5×10^3 cells/well, and cultured in 2S-containing DMEM added with the peptide (a) or (c) at various concentrations and adjusted by addition of 10 mM sodium β-glycerophosphate. Three weeks after the cells reached a confluent state, the cells were washed with PBS, fixed with neutrally buffered formalin and stained with alizarin red S (Wako Pure Chemical Industries).

[1] = system: Human-derived Periodontal Ligament Cells (PDL Cells); test: Cell growth of PDL cells (cell number by Coulter counter); type: cell-based; settings: peptide added at various concentrations to DMEM containing 2% FBS; counted on Days 4 and 6; versus control medium (FIG. 1, FIG. 2)
Source text: PDL cells were isolated from a healthy premolar carefully extracted from a patient who visited a hospital to extract teeth for orthodontic treatment so that periodontal ligament should not be damaged as far as possible, and cultured. The extracted tooth was washed with sterilized physiological saline and phosphate-buffered saline (PBS, Nissui), and then periodontal ligament existing in ⅓ of the tooth root at the center was scraped off with a sharp knife. The pieces of periodontal ligament were transferred to a plastic plate and minced into small fragments using a round-blade knife. Tissue fragments were left standing in a plate having a diameter of 35 mm (FALCON) and cultured in Dulbecco's modified Eagle medium (DMEM, Nissui) containing antibiotics (100 U/ml of penicillin G, 100 μg/ml of streptomycin and 250 μg/ml of gentamicin) and 10% fetal bovine serum (FBS, EQUITECH-BIO) at 37° C. under 5% CO2. […]
The PDL cells prepared in (1) were inoculated on a 24-well culture plate (FALCON) at a ratio of 5×10^3 cells/well. […] On Days 4 and 6, the cells were separated and dispersed by using PBS containing 0.08% trypsin and 0.04% ethylenediaminetetraacetic acid (EDTA), and cell number was counted by using a Coulter counter (COULTER Z1, Coulter Electronics). […]

[2] = system: periodontal disease model; test: Periodontal disease model (histology of defect at first molar of the upper jaw); type: in vivo, Wistar rats; settings: one month after operation
Description: The following experiment was performed in order to examine action of the peptide of the present invention on a periodontal disease model. • (i) Preparation of Periodontal Disease Model 8-week old Wistar rats were systemically anesthetized with an ethyl carbamate solution in a volume of 0.5 ml per 100 g of body weight, and then the mesial gingiva of each first molar on the upper jaw was vertically incised. The gingival periosteal flap was reflected to expose the mesial alveolar bone of the first molar. Then, a defect having a length of about 2 mm and a buccolingual diameter of about 1 mm was formed from the alveolar bone crest of the same site towards the root apex side by using a fissure bur under pouring saline to expose the mesial root face of the first molar on the upper jaw. The root cementum and surface of dentin was removed together with the periodontal ligament attached to the exposed root face so as to make a shallow cavity. • (ii) Test Method At the aforementioned defect, a sample prepared with 1% PBS solution of sodium hyaluronate (weight average molecular weight: 900,000) was applied on the exposed root face, and the gingival periosteal flap was repositioned and sutured. By using a group of the animals applied with 1% PBS solution of sodium hyaluronate containing the peptide (a) (concentration of the peptide (a): 0.3 mg/ml) as the peptide group, a group of the animals applied with 1% PBS solution of sodium hyaluronate alone as the hyaluronic acid group, and a group of the animals applied with no substance before suture of the gingival periosteal flap for restoration as the control group, healing conditions were compared one month after the operation. The animals were euthanized with chloroform, and each experimental site was excised. The excised upper jaw bone was fixed by immersion in neutrally buffered formalin for 1 day and then decalcified over 2 days by using a rapid decalcifying solution (K-CX). The specimen was embedded in paraffin in a conventional manner, then a mesiodistal section having a thickness of […] and parallel to the longitudinal axis of the tooth root was prepared at the experiment site and stained with hematoxylin/eosin. Adhesion condition of periodontal tissue to the exposed surface of the tooth root at the defective site and the position of the apex of the alveolar bone were evaluated light microscopically. • (iii) Results (Findings)

[3] = peptide (a) 0.3 mg/ml in 1% PBS solution of sodium hyaluronate

VPAFPRQPGTPGVASL [Peptide (a)]
calcification ability of the PDL cells (PDL cells): significantly increased
PDL cell number (cell growth promoting effect) [1]: significantly increased
down-growth of the epithelium ([2]; peptide (a) 0.3 mg/ml in 1% PBS solution of sodium hyaluronate applied on exposed root face, versus control and hyaluronic acid groups): observed to a less extent
deposition of cementum with Sharpey's fibers on the exposed root surface [2, 3]: deposition of cementum with Sharpey's fibers, that is, new connective tissue attachment formation, was observed
separation between the gingiva and the tooth root [2, 3]: no such separation was observed
bone regeneration at the periodontal defect ([2]; peptide (a) 0.3 mg/ml in 1% PBS solution of sodium hyaluronate, versus control and hyaluronic acid groups): more active than in the other two groups

Source: US7678884B2, “Biologically active peptide and agent containing the same” (Seikagaku Corporation, priority 2003, dated 2010)
